Test results taken from ChEMBL document CHEMBL1144514, “The design, synthesis, and biological evaluation of novel substituted purines as HIV-1 Tat-TAR inhibitors” (Bioorg Med Chem, 2007).

Key:
[1] = test system: Simian immunodeficiency virus; test: Inhibition of SIV-induced cytopathogenicity in CEM174 cells; format: functional, organism-based
[2] = test system: 293T; test: Inhibition of Tat-mediated transactivation in human 293T cells assessed as CAT expression at 30 uM; format: cell-based; conditions: Human immunodeficiency virus 1
[3] = Selectivity index, ratio of EC50 for SIV infected CEM174 cells to TC50 for CEM174 cells; format: functional
[4] = Cytotoxicity against CEM174 cells; format: cell-based; conditions: human, read-out: TC50 (the source's name)

SMILES | EC50 [1] [µM] | inhibition [2] [%] | Selectivity index [3] | CC50 [4] [µM]
CCN(CC)CC[n+]1c(SCC(=O)NCCN)[nH]c2c(C)nc(N(CC)CC)nc21 | 1.3 | 43.1 | 40.2 | 52.2
CCN(CC)CC[n+]1c(SCC(=O)NCCCNC(=N)N)[nH]c2c(C)nc(N(CC)CC)nc21 | 4.7 | 36.2 | >21.3 | > 100
CCN(CC)c1nc(C)c2[nH]c(SCC(=O)NCCCNC(=N)N)nc2n1 | 0.7 | 57.1 | >142.9 | > 100
Cc1cn([C@H]2C[C@H](N=[N+]=[N-])[C@@H](CO)O2)c(=O)[nH]c1=O [ZIDOVUDINE] | 0.0122 | – | – | > 100
CCN(CC)c1nc(C)c2[nH]c(SCC(=O)NCCN)[n+](CCCN(C)C)c2n1 | 3.4 | 57.7 | >29.4 | > 100
CCN(CC)c1nc(C)c2[nH]c(SCC(=O)NCCCNC(=N)N)[n+](CCCN(C)C)c2n1 | 3.2 | 48.8 | >31.25 | > 100
CCN(CC)c1nc(C)c2[nH]c(SCC(=O)NCCNC(=N)N)[n+](CCCN(C)C)c2n1 | 7.2 | 50.2 | >13.9 | > 100
CCN(CC)c1nc(C)c2[nH]c(SCC(=O)NCCCN)[n+](CCCN(C)C)c2n1 | 0.2 | 48.7 | >500 | > 100
CCN(CC)c1nc(C)c2[nH]c(SCC(=O)NCCN)nc2n1 | 2 | 65.7 | >50 | > 100
CCN(CC)c1nc(C)c2[nH]c(SCC(=O)NCCCN)nc2n1 | 0.5 | 58.4 | >200 | > 100
CCN(CC)c1nc(C)c2[nH]c(SCC(=O)NCCNC(=N)N)nc2n1 | 4.2 | 57.1 | >23.8 | > 100
CCN(CC)CC[n+]1c(SCC(=O)NCCCN)[nH]c2c(C)nc(N(CC)CC)nc21 | 1.4 | 43.3 | >71.4 | > 100
CCN(CC)CC[n+]1c(SCC(=O)NCCNC(=N)N)[nH]c2c(C)nc(N(CC)CC)nc21 | 0.7 | 34.9 | >142.9 | > 100
